What was measured:
Format in all cases: in vivo
Setaria faberi (SETFA) [1] = experiment: Pre-emergence biological efficacy, glasshouse pot test; conditions: 312 h
Procedure, shortened: (§1)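 Sow seeds in pots of standard soil; after one day in the glasshouse, spray test compound (1000 or 250 g/ha) in aqueous acetone/water with 0.5% Tween 20. Grow 13 days at 24/16 °C day/night, then score damage from 0 to 100.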

Solanum nigrum (SOLNI) [2] = experiment: as above; conditions: 312 h
Procedure, shortened: as §1

[3] = test system: Echinochloa crus-galli (ECHCG); experiment: as above; conditions: 312 h
Procedure, shortened: as §1

[4] = test system: Alopecurus myosuroides (ALOMY); experiment: as above; conditions: 312 h
Procedure, shortened: as §1

[5] = test system: Amaranthus retoflexus (AMARE); experiment: as above; conditions: Amaranthus retroflexus, 312 h
Procedure, shortened: as §1

[6] = test system: Ipomea hederaceae (IPOHE); experiment: as above; conditions: Ipomoea hederacea, 312 h
Procedure, shortened: as §1

Setaria faberi (SETFA) [7] = experiment: Post-emergence biological efficacy, glasshouse pot test; conditions: 312 h
Procedure, shortened: (§2)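 Scored 13 days after spraying on a 0 (no damage) to 100 (total damage) scale. Treatment was a post-emergence spray at 1000 or 250 g/ha, from acetone/water 50:50 plus 0.5% Tween 20, onto 8-day-old plants in soil pots. Growth at 24/16° C, 14 h photoperiod, 65% humidity, watered twice daily.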

Solanum nigrum (SOLNI) [8] = experiment: as above; conditions: 312 h
Procedure, shortened: as §2

[9] = test system: Echinochloa crus-galli (ECHCG); experiment: as above; conditions: 312 h
Procedure, shortened: as §2

[10] = test system: Alopecurus myosuroides (ALOMY); experiment: as above; conditions: 312 h
Procedure, shortened: as §2

[11] = test system: Amaranthus retoflexus (AMARE); experiment: as above; conditions: Amaranthus retroflexus, 312 h
Procedure, shortened: as §2

[12] = test system: Ipomea hederaceae (IPOHE); experiment: as above; conditions: Ipomoea hederacea, 312 h
Procedure, shortened: as §2

[13] = pre-emergence, rate 1,000 g/ha, evaluated after 13 days (100=total damage to plant; 0=no damage), read-out: Percentage damage caused to weed species, SETFA
[14] = pre-emergence, rate 1,000 g/ha, evaluated after 13 days (100=total damage to plant; 0=no damage), read-out: Percentage damage caused to weed species, SOLNI
[15] = pre-emergence, rate 1,000 g/ha, evaluated after 13 days (100=total damage to plant; 0=no damage), read-out: Percentage damage caused to weed species, ECHCG
[16] = pre-emergence, rate 1,000 g/ha, evaluated after 13 days (100=total damage to plant; 0=no damage), read-out: Percentage damage caused to weed species, ALOMY
[17] = pre-emergence, rate 1,000 g/ha, evaluated after 13 days (100=total damage to plant; 0=no damage), read-out: Percentage damage caused to weed species, AMARE
[18] = pre-emergence, rate 1,000 g/ha, evaluated after 13 days (100=total damage to plant; 0=no damage), read-out: Percentage damage caused to weed species, IPOHE
[19] = Rate 1,000 g/ha, post-emergence spray, evaluated after 13 days (100=total damage to plant; 0=no damage to plant), read-out: Percentage damage caused to weed species, post-emergence, SETFA
[20] = Rate 1,000 g/ha, post-emergence spray, evaluated after 13 days (100=total damage to plant; 0=no damage to plant), read-out: Percentage damage caused to weed species, post-emergence, SOLNI
[21] = Rate 1,000 g/ha, post-emergence spray, evaluated after 13 days (100=total damage to plant; 0=no damage to plant), read-out: Percentage damage caused to weed species, post-emergence, ECHCG
[22] = Rate 1,000 g/ha, post-emergence spray, evaluated after 13 days (100=total damage to plant; 0=no damage to plant), read-out: Percentage damage caused to weed species, post-emergence, ALOMY
[23] = Rate 1,000 g/ha, post-emergence spray, evaluated after 13 days (100=total damage to plant; 0=no damage to plant), read-out: Percentage damage caused to weed species, post-emergence, AMARE
[24] = Rate 1,000 g/ha, post-emergence spray, evaluated after 13 days (100=total damage to plant; 0=no damage to plant), read-out: Percentage damage caused to weed species, post-emergence, IPOHE
[25] = pre-emergence, 1,000 g/ha, evaluated after 13 days (100=total damage; 0=no damage), read-out: Percentage damage SETFA
[26] = pre-emergence, 1,000 g/ha, evaluated after 13 days (100=total damage; 0=no damage), read-out: Percentage damage SOLNI
[27] = pre-emergence, 1,000 g/ha, evaluated after 13 days (100=total damage; 0=no damage), read-out: Percentage damage ECHCG
[28] = pre-emergence, 1,000 g/ha, evaluated after 13 days (100=total damage; 0=no damage), read-out: Percentage damage ALOMY
[29] = pre-emergence, 1,000 g/ha, evaluated after 13 days (100=total damage; 0=no damage), read-out: Percentage damage AMARE
[30] = pre-emergence, 1,000 g/ha, evaluated after 13 days (100=total damage; 0=no damage), read-out: Percentage damage IPOHE
[31] = post-emergence, 1,000 g/ha, evaluated after 13 days (100=total damage; 0=no damage), read-out: Percentage damage caused to weed species, SETFA
[32] = post-emergence, 1,000 g/ha, evaluated after 13 days (100=total damage; 0=no damage), read-out: Percentage damage caused to weed species, SOLNI
[33] = post-emergence, 1,000 g/ha, evaluated after 13 days (100=total damage; 0=no damage), read-out: Percentage damage caused to weed species, ECHCG
[34] = post-emergence, 1,000 g/ha, evaluated after 13 days (100=total damage; 0=no damage), read-out: Percentage damage caused to weed species, ALOMY
[35] = post-emergence, 1,000 g/ha, evaluated after 13 days (100=total damage; 0=no damage), read-out: Percentage damage caused to weed species, AMARE
[36] = post-emergence, 1,000 g/ha, evaluated after 13 days (100=total damage; 0=no damage), read-out: Percentage damage caused to weed species, IPOHE

| SMILES | pest or weed control at 1000 g/ha (Setaria faberi (SETFA) [1]; [13]) | pest or weed control at 1000 g/ha (Solanum nigrum (SOLNI) [2]; [14]) | pest or weed control at 1000 g/ha [3, 15] | pest or weed control at 1000 g/ha [4, 16] | pest or weed control at 1000 g/ha [5, 17] | pest or weed control at 1000 g/ha [6, 18] | pest or weed control at 1000 g/ha (Setaria faberi (SETFA) [7]; [19]) | pest or weed control at 1000 g/ha (Solanum nigrum (SOLNI) [8]; [20]) | pest or weed control at 1000 g/ha (Setaria faberi (SETFA) [1]; [25]) | pest or weed control at 1000 g/ha (Solanum nigrum (SOLNI) [2]; [26]) | pest or weed control at 1000 g/ha [3, 27] | pest or weed control at 1000 g/ha [4, 28] | pest or weed control at 1000 g/ha [5, 29] | pest or weed control at 1000 g/ha [6, 30] | pest or weed control at 1000 g/ha (Setaria faberi (SETFA) [7]; [31]) | pest or weed control at 1000 g/ha (Solanum nigrum (SOLNI) [8]; [32]) | pest or weed control at 1000 g/ha [9, 33] | pest or weed control at 1000 g/ha [10, 34] | pest or weed control at 1000 g/ha [11, 35] | pest or weed control at 1000 g/ha [12, 36] | also measured |
| --- | --- | --- | --- | --- | --- | --- | --- | --- | --- | --- | --- | --- | --- | --- | --- | --- | --- | --- | --- | --- | --- |
| COC(=O)c1nc(-c2ccc(Cl)c(OC)c2F)nc(NCc2ccc(C)o2)c1Cl [Compound 112-135, 5-Chloro-2-(4-chloro-2-fluoro-3-methoxyphenyl)-6-methoxycarbonyl-4-[(5-methylfuran-2-yl)methylamino)-pyrimidine] | 90% | 100% | 90% | 70% | 100% | 100% | 90% | 90% |  |  |  |  |  |  |  |  |  |  |  |  | pest or weed control at 1000 g/ha [9, 21]: 90%; pest or weed control at 1000 g/ha [10, 22]: 70%; pest or weed control at 1000 g/ha [11, 23]: 100%; pest or weed control at 1000 g/ha [12, 24]: 80% |
| Cc1ccc(CNc2nc(C3CC3)nc(C(=O)O)c2Cl)o1 [Compound 1-135, 5-Chloro-2-cyclopropyl-4-(5-methylfuran-2-ylmethylamino)-pyrimidine-6-carboxylic acid] |  |  |  |  |  |  |  |  | 90% | 100% | 90% | 80% | 100% | 100% | 80% | 100% | 70% | 80% | 100% | 100% |  |
| COC(=O)c1nc(C2CC2)nc(N(C)Cc2ccc(OC)cc2)c1Cl [Compound 5-80, 5-Chloro-2-cyclopropyl-6-methoxycarbonyl-4-[N-(4-methoxy-phenyl)methyl-N-methyl-amino]-pyrimidine] | 20% | 30% | 0% | 0% | 100% | 60% | 80% | 100% |  |  |  |  |  |  |  |  |  |  |  |  | pest or weed control at 1000 g/ha [9, 21]: 50%; pest or weed control at 1000 g/ha [10, 22]: 20%; pest or weed control at 1000 g/ha [11, 23]: 100%; pest or weed control at 1000 g/ha [12, 24]: 100% |
| COC(=O)c1nc(C2CC2)nc(NCc2ccccc2N2CCOCC2)c1Cl [Compound 4-88, 5-Chloro-2-cyclopropyl-6-methoxycarbonyl-4-(2-morpholin-4-yl-phenylmethyl-amino)-pyrimidine] |  |  |  |  |  |  |  |  | 20% | 70% | 50% | 40% | 70% | 100% | 60% | 80% | 60% | 50% | 100% | 80% |  |
| COC(=O)c1ccc(CNc2nc(C3CC3)nc(C(=O)OC)c2Cl)cc1 [Compound 4-94, 5-Chloro-2-cyclopropyl-6-methoxycarbonyl-4-(4-methoxy-carbonylphenyl-methylamino)-pyrimidine] |  |  |  |  |  |  |  |  | 10% | 80% | 10% | 10% | 70% | 50% | 30% | 90% | 10% | 10% | 100% | 100% |  |
| COC(=O)c1nc(-c2ccc(C)cc2Cl)nc(NCc2ccco2)c1Cl [Compound 238-48, 5-Chloro-2-(2-chloro-4-methylphenyl)-4-(furan-2-yl-methyl-amino)-6-methoxy-carbonylpyrimidine] | 10% | 0% | 0% | 20% | 100% | 0% | 0% | 30% |  |  |  |  |  |  |  |  |  |  |  |  | pest or weed control at 1000 g/ha [9, 21]: 0%; pest or weed control at 1000 g/ha [10, 22]: 10%; pest or weed control at 1000 g/ha [11, 23]: 100%; pest or weed control at 1000 g/ha [12, 24]: 60% |
| COC(=O)c1nc(C2CC2)nc(NC2(/C=C/c3cccc(Cl)c3)CC2)c1Cl [Compound 4-30, 5-Chloro-4-{1-[2-(3-chlorophenyl)-etenyl]-cyclopropylamino}-2-cyclopropyl-6-methoxycarbonyl-pyrimidine] |  |  |  |  |  |  |  |  | 10% | 0% | 0% | 0% | 20% | 40% | 60% | 70% | 30% | 10% | 100% | 100% |  |
| COC(=O)c1nc(C2CC2)nc(N[C@@H](C)c2cccc(OC)c2)c1Cl [4-180 (S), (S)-5-Chloro-2-cyclopropyl-6-methoxycarbonyl-4-[1-(3-methoxy-phenyl)ethylamino]-pyrimidine] |  |  |  |  |  |  |  |  | 0% | 10% | 0% | 0% | 20% | 80% | 30% | 70% | 50% | 20% | 80% | 80% |  |
| COC(=O)c1nc(C2CC2)nc(NCCCn2ccnc2)c1Cl [Compound 4-250, 5-Chloro-2-cyclopropyl-4-[3-(imidazol-1-yl)propylamino]-6-methoxycarbonyl-pyrimidine] |  |  |  |  |  |  |  |  | 0% | 40% | 0% | 0% | 90% | 80% | 50% | 70% | 30% | 0% | 100% | 100% |  |
